# Values of other authors in paper PMC7904743, “WIDOCK: a reactive docking protocol for virtual screening of covalent inhibitors” (Journal of Computer-Aided Molecular Design, 2021).
# Read-outs that look alike come from different tables or passages of the source.
# What was measured:
# [1] = thiol reactivity, cited from earlier work
# NUDT7 = details: protein labeling at 200 μM; experimental actives if % labeling higher than 50%; cited from earlier work
# OTUB2 = details: experimental actives if % labeling higher than 50%, cited from earlier work
# [2] = natural log of average rate constant k
# [3] = natural logarithm of average rate constant
# [4] = natural log of average kinetic rate constant
# [5] = natural log of average rate constant
Structure (SMILES),"ln(avg k) [1, 2]",NUDT7 % labeling (NUDT7),"ln(avg k) [1, 5]",further results
"Cc1ccc(NC(=O)CCl)c(Cl)c1 [PCM-0102408, Cc1ccc(NC(=O)CCl)c(Cl)c1]",-16.426,18%,,
"N#CC1(NC(=O)CCl)CCCC1 [PCM-0102136, N#CC1(NC(=O)CCl)CCCC1]",-15.612,0%,,
"O=C(CCl)Nc1nncs1 [PCM-0102427, O=C(CCl)Nc1nncs1]",,,,"ln(avg k) [1, 3]: -16.300; OTUB2 % labeling (OTUB2): 0%"
"O=C(CCl)NCC#Cc1ccccc1 [PCM-0103007, O=C(CCl)NCC#Cc1ccccc1]",,,,"ln(avg k) [1, 4]: -16.727; OTUB2 % labeling (OTUB2; OTUB2 protein labeling): 60%"
"Cc1cccc(N2CCN(C(=O)CCl)CC2)c1C [PCM-0102215, Cc1cccc(N2CCN(C(=O)CCl)CC2)c1C]",-15.103,29%,,
"Cc1cc(N2CCCC2)ccc1NC(=O)CCl [PCM-0102301, Cc1cc(N2CCCC2)ccc1NC(=O)CCl]",-16.271,24%,,
"O=C(CCl)Nc1nc(-c2ccco2)cs1 [PCM-0102979, O=C(CCl)Nc1nc(-c2ccco2)cs1]",,25%,-15.876,
"Cc1cc(NC(=O)CCl)n(C)n1 [PCM-0102383, Cc1cc(NC(=O)CCl)n(C)n1]",-15.428,0%,,
"O=C(CCl)NC1CCC(C(F)(F)F)CC1 (stereo not drawn) [PCM-0102864, O=C(CCl)NC1CCC(C(F)(F)F)CC1]",,0%,-16.404,
"O=C(CCl)Nc1c(Cl)cccc1Cl [PCM-0102234, O=C(CCl)Nc1c(Cl)cccc1Cl]",-17.086,64%,,
"O=C(CCl)N1N=C(c2ccco2)CC1c1cccs1 (stereo not drawn) [PCM-0102182, O=C(CCl)N1N=C(c2ccco2)CC1c1cccs1]",,,,"ln(avg k) [1, 3]: -14.540; OTUB2 % labeling (OTUB2): 0%"
"O=C(CCl)NC1CCC2(CC1)OCCO2 [PCM-0102820, O=C(CCl)NC1CCC2(CC1)OCCO2]",,,,"ln(avg k) [1, 4]: -16.468; OTUB2 % labeling (OTUB2; OTUB2 protein labeling): 13%"
"Cc1ccccc1CN1CCCN(C(=O)CCl)CC1 [PCM-0102911, Cc1ccccc1CN1CCCN(C(=O)CCl)CC1]",,0%,,OTUB2 % labeling (OTUB2; OTUB2 protein labeling): 0%
"O=C(CCl)Nc1ccc(N2CCCCCC2)cc1 [PCM-0102199, O=C(CCl)Nc1ccc(N2CCCCCC2)cc1]",-15.785,8%,,
"COc1ccc(NC(=O)NC(=O)CCl)cc1 [PCM-0102268, COc1ccc(NC(=O)NC(=O)CCl)cc1]",-15.795,0%,,
"O=C(CCl)Nc1ccc(N2CCCCC2)nc1 [PCM-0102812, O=C(CCl)Nc1ccc(N2CCCCC2)nc1]",,14%,-15.797,
"CC(NC(=O)CCl)C(=O)O (stereo not drawn) [PCM-0102990, CC(NC(=O)CCl)C(=O)O]",,0%,-18.115,
"O=C(CCl)Nc1ccc2c(c1)NC(=O)CO2 [PCM-0102890, O=C(CCl)Nc1ccc2c(c1)NC(=O)CO2]",,8%,,OTUB2 % labeling (OTUB2; OTUB2 protein labeling): 32%
"O=C(CCl)Nc1ccc2c(c1)OC1(CCCC1)O2 [PCM-0102801, O=C(CCl)Nc1ccc2c(c1)OC1(CCCC1)O2]",,10%,-15.785,
"CC1CCN(c2ccc(NC(=O)CCl)cc2)CC1 [PCM-0102235, CC1CCN(c2ccc(NC(=O)CCl)cc2)CC1]",-16.035,0%,,
"O=C(CCl)Nc1ccccc1O [PCM-0102907, O=C(CCl)Nc1ccccc1O]",,36%,-17.265,
"CN(C)c1ccc(NC(=O)CCl)cc1 [PCM-0102859, CN(C)c1ccc(NC(=O)CCl)cc1]",,0%,-14.235,
"O=C(CCl)N1CCC2CCCCC2C1 (stereo not drawn) [PCM-0102474, O=C(CCl)N1CCC2CCCCC2C1]",,,,"ln(avg k) [1, 3]: -15.859; OTUB2 % labeling (OTUB2): 0%"
"Cc1cc(NC(=O)CCl)ccc1Br [PCM-0102770, Cc1cc(NC(=O)CCl)ccc1Br]",,21%,-15.518,
"CC1CCCCN1C(=O)CCl (stereo not drawn) [PCM-0102434, CC1CCCCN1C(=O)CCl]",-15.958,0%,,
"CC(=O)NC1CCCN(C(=O)CCl)C1 (stereo not drawn) [PCM-0102934, CC(=O)NC1CCCN(C(=O)CCl)C1]",,0%,-15.534,
"Cc1cccc([N+](=O)[O-])c1NC(=O)CCl [PCM-0102176, Cc1cccc([N+](=O)[O-])c1NC(=O)CCl]",-16.601,22%,,
